Assays:
[1] = target: T1, PI3K (p120γ) (h) (Homo sapiens, UniProt P48736); assay: PI3K (p120γ) (h) non-radioactive HTRF kinase assay; format: biochemical; conditions: Kinase inhibition data; performed at Millipore UK Ltd
T1 construct: purchased Millipore UK Ltd
Description: (§1) The above assay procedure can be used to determine the IC50 for inhibition and/or the inhibition constant, Ki.
PI3K (p120γ) (h) [Non-Radioactive Assay]
(§2) PI3K (p120γ) (h) is incubated in assay buffer containing 10 M phosphatidylinositol-4, 5-bisphosphate and MgATP (concentration as required). The reaction is initiated by the addition of the MgATP mix. After incubation for 30 minutes at room temperature, the reaction is stopped by the addition of stop solution containing EDTA and biotinylated phosphatidylinositol-3,4,5-trisphosphate. Finally, detection buffer is added, which contains europium-labelled anti-GST monoclonal antibody, GST-tagged GRP1 PH domain and streptavidin-allophycocyanin. The plate is then read in timeresolved fluorescence mode and the homogenous time-resolved fluorescence (HTRF) signal is determined according to the formula HTRF=10000×(Em665 nm/Em620 nm).
(§3) The kinase assays described herein were performed at Millipore UK Ltd, Dundee Technology Park, Dundee DD2 1SW, UK.

[2] = Pharmacokinetics after intravenous and oral administration in rats; format: in vivo; conditions: for CL/F / bioavailability: Rats; for CL/F: iv dosing, dose 1 mg/kg (0.5 for Ex. 1, 10, 11, 35; 0.48 for Ex. 24); for AUC(0-t) / half-life / Vd / bioavailability: rat, plasma; for AUC(0-t) / half-life / Vd: iv, 1 mg/kg; for Vd: read-out: Vss; for bioavailability: oral (p.o.) generally 5 or 10 mg/kg versus iv dosing
Description: The LC/MS/MS system used in the analysis consists of an Agilent 1200 Series vacuum degasser, binary pump, well-plate autosampler, thermostatted column compartment, the Agilent G6430 Triple Quadrupole Mass Spectrometer with an electrosprayionization (ESI) source. Quantitative analysis was carried out using MRM mode. The parameters for MRM transitions are in the Table A.
An Agilent XDB-C18, 2.1×30 mm, 3.5 M column was used for the analysis. 5 L of the samples were injected. Analysis condition: The mobile phase was 0.1% formic acid in water (A) and 0.1% formic acid in methanol (B). The flow rate was 0.4 mL/min. And the gradient of Mobile phase was in the Table B.
Alternatively, an Agilent 6330 series LC/MS/MS spectrometer equipped with G1312A binary pumps, a G1367A autosampler and a G1314C UV detector were used in the analysis. An ESI source was used on the LC/MS/MS spectrometer. The analysis was done in positive ion mode as appropriate and the MRM transition for each analyte was optimized using standard solution. A Capcell MP-C18 100×4.6 mm I.D., […] column (Phenomenex, Torrance, Calif., USA) was used during the analysis. The mobile phase was 5 mM ammonia acetate, 0.1% MeOH in water (A): 5 mM ammonia acetate, 0.1% MeOH in acetonitrile (B) (70:30, v/v). The flow rate was 0.6 mL/min. Column was maintained at ambient temperature. 20 μL of the samples were injected.
The compounds disclosed herein are assessed in pharmacokinetic studies in mice, rats, dogs or monkeys. The compounds are administered as a water solution, 2% HPMC+1% TWEEN®80 in water solution, 5% DMSO+5% solutol in saline, 4% MC suspension or capsule. For the intravenous administration, the animals are generally given at 1 or 2 mg/kg dose. For the oral (p.o.) dosing, mice and rats are generally given 5 or 10 mg/kg dose, and dogs and monkeys are generally given 10 mg/kg dose. The blood samples (0.3 mL) are drawn at 0.25, 0.5, 1.0, 2.0, 3.0, 4.0, 6.0, 8.0, 12 and 24 h time points or 0.083, 0.25, 0.5, 1.0, 2.0, 4.0, 6.0, 8.0 and 24 h time points and centrifuged at 3,000 or 4000 rpm for 2 to 10 min. The plasma solutions are collected, stored at −20° C. or −70° C. until analyzed by LC/MS/MS as described above.

[3] = target: T2, PI3K (h) p110β/p85α (Homo sapiens, UniProt P42338); assay: PI3K (p110β/p85α) (h) non-radioactive HTRF kinase assay; format: biochemical; conditions: Kinase inhibition data; performed at Millipore UK Ltd
T2 construct: purchased Millipore UK Ltd

[4] = target: T3, PI3K (p110δ/p85α) (h) (Homo sapiens, UniProt O00329); assay: PI3K (p110δ/p85α) (h) non-radioactive HTRF kinase assay; format: biochemical; conditions: Kinase inhibition data; performed at Millipore UK Ltd
T3 construct: purchased Millipore UK Ltd
Description: as §1
PI3K (p110δ/p85α) (h) [Non-Radioactive Assay]
as §2, with “PI3K (p110δ/p85α)” for “PI3K (p120γ)”, “10 μM” for “10 M”
as §3

[5] = target: T4, PI3K (p110α/p85α) (h) (Homo sapiens, UniProt P42336); assay: PI3K (p110α/p85α) (h) non-radioactive HTRF kinase assay; format: biochemical; conditions: Kinase inhibition data; performed at Millipore UK Ltd
T4 construct: purchased Millipore UK Ltd
Description: as §1
PI3K (p110α/p85α) (h) [Non-Radioactive Assay]
as §2, with “(p110α/p85α)” for “(p120γ)”, “μM phosphatidylinositol 4,5-bisphosphate” for “M phosphatidylinositol-4, 5-bisphosphate”, “ATP solution.” for “MgATP mix.”, “streptavidin allophycocyanin.” for “streptavidin-allophycocyanin.”
as §3

[6] = Compound stability in human liver microsomes; format: in vitro ADME; conditions: for half-life at 5 μM: human liver microsomes 0.5 mg protein/mL, compound 5 μM, NADPH 1.0 mM, pH 7.4, 37° C., read-out: Human T1/2; for CLint scaled at 5 μM: liver microsomes, pH 7.4, in vivo CLint extrapolated from human liver microsome incubation
Description: (§4) Human or rat liver microsomes incubations were conducted in duplicate in polypropylene tubes. The typical incubation mixtures consisted of human or rat liver microsomes (0.5 mg protein/mL), compounds of interest (5 μM) and NADPH (1.0 mM) in a total volume of 200 μL potassium phosphate buffer (PBS, 100 mM, pH 7.4). Compounds were dissolved in DMSO and diluted with PBS such that the final concentration of DMSO was 0.05%. The enzymatic reactions were commenced with the addition of protein after a 3-min preincubation and incubated in a water bath open to the air at 37° C. Reactions were terminated at various time points (0, 5, 10, 15, 30, 60 min) by adding equal volume of ice-cold acetonitrile. The samples were stored at −80° C. until LC/MS/MS assays.
(§5) The concentrations of compounds in the incubation mixtures of human or rat liver microsomes were determined by a LC/MS/MS method. The ranges of the linearity in the concentration range were determined for each tested compounds.
(§6) A parallel incubation was performed using denatured microsomes as the negative control, and reactions were terminated at various time points (0, 15, 60 min) after incubation at 37° C.
(§7) Dextromethorphan (70 μM) was selected as the positive control, and reactions were terminated at various time points (0, 5, 10, 15, 30, 60 min) after incubation at 37° C. Both positive and negative control samples were included in each assay to ensure the integrity of the microsomal incubation system.
(§8) The concentrations of compounds in human or rat liver microsome incubations were plotted as a percentage of the relevant zero time point control for each reaction. The in vivo CLint were extrapolated (ref.: Naritomi, Y.; Terashita, S.; Kimura, S.; Suzuki, A.; Kagayama, A.; and Sugiyama, Y.; Prediction of human hepatic clearance from in vivo animal experiments and in vitro metabolic studies with liver microsomes from animals and humans. Drug Metab. Dispos., 2001, 29: 1316-1324).

[7] = Compound stability in rat liver microsomes; format: in vitro ADME; conditions: for CLint scaled at 5 μM: liver microsomes, pH 7.4, in vivo CLint extrapolated from rat liver microsome incubation; for half-life at 5 μM: rat liver microsomes 0.5 mg protein/mL, compound 5 μM, NADPH 1.0 mM, pH 7.4, 37° C., read-out: Rat T1/2
Description: as §4, §5, §6, §7, §8

T3 sequence (O00329 whole entry): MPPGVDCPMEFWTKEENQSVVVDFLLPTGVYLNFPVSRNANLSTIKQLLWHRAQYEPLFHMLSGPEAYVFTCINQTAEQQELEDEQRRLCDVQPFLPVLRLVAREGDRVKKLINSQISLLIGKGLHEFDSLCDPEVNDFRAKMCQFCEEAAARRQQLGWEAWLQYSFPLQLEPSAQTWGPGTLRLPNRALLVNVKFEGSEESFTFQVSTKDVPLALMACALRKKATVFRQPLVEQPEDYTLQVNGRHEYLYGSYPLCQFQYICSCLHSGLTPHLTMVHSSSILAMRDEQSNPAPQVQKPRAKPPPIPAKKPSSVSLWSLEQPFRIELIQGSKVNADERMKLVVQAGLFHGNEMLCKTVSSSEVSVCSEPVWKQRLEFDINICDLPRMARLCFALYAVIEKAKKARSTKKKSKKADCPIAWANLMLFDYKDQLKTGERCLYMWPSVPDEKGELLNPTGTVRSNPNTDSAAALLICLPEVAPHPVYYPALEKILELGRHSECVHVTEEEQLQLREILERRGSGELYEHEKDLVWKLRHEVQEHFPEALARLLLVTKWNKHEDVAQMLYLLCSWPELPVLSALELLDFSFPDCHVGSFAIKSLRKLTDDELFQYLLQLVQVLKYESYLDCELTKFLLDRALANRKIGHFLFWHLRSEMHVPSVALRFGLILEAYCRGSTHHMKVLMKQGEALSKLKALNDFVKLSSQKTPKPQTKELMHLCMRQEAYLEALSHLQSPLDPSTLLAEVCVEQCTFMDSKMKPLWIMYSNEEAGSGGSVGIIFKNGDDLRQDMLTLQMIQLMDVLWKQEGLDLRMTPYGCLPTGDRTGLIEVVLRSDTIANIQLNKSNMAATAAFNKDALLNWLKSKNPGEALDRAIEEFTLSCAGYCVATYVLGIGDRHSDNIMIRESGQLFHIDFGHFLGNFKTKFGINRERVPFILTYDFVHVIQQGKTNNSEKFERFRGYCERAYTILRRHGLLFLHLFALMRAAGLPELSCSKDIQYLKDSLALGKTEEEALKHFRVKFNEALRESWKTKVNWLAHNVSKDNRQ
T3 sequence (P27986 whole entry partner): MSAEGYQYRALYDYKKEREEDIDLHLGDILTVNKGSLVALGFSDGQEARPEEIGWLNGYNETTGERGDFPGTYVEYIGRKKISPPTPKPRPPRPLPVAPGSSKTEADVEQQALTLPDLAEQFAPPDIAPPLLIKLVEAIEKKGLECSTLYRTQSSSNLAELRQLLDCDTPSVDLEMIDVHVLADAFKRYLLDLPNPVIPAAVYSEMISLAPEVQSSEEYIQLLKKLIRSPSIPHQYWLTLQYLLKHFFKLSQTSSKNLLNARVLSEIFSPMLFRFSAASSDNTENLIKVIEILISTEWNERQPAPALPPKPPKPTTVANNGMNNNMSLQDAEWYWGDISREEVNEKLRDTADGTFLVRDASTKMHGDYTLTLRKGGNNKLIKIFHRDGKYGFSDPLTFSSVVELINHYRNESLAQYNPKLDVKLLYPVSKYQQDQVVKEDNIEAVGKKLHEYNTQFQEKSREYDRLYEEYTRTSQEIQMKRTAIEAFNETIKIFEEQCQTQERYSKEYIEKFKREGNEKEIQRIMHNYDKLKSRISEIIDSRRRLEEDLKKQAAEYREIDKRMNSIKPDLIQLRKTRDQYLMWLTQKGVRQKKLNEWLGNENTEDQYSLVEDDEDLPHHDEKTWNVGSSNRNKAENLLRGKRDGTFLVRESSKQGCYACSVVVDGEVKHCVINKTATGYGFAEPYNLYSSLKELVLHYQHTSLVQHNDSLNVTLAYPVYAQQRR
T4 sequence (P42336 whole entry): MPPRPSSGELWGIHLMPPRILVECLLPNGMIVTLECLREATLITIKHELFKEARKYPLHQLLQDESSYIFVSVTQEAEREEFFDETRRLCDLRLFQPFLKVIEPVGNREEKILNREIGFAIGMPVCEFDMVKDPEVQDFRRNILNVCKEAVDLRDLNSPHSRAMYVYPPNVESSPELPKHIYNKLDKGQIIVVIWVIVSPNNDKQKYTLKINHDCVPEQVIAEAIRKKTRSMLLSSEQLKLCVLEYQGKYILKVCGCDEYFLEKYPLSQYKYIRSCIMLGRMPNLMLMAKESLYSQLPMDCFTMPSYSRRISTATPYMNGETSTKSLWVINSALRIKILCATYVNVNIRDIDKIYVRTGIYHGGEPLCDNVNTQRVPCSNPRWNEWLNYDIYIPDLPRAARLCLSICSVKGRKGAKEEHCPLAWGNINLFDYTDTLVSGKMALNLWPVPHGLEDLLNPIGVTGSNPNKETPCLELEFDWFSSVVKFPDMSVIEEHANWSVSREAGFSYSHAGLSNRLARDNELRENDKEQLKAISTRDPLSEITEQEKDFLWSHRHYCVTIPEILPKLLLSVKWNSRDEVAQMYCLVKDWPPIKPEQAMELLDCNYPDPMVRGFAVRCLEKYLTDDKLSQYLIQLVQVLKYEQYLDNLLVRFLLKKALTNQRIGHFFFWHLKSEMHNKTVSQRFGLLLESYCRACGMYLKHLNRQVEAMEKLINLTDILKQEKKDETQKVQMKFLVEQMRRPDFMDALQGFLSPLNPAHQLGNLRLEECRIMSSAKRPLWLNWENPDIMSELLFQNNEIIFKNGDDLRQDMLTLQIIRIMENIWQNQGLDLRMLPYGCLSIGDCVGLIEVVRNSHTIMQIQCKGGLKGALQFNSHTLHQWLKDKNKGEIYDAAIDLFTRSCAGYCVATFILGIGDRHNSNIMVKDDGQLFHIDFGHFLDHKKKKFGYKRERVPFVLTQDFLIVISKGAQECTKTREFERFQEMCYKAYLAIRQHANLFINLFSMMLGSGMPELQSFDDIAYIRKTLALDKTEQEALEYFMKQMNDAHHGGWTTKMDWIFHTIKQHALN
T4 sequence (P27986 whole entry partner): as the sequence (P27986 whole entry partner) above
T1 sequence (P48736 whole entry): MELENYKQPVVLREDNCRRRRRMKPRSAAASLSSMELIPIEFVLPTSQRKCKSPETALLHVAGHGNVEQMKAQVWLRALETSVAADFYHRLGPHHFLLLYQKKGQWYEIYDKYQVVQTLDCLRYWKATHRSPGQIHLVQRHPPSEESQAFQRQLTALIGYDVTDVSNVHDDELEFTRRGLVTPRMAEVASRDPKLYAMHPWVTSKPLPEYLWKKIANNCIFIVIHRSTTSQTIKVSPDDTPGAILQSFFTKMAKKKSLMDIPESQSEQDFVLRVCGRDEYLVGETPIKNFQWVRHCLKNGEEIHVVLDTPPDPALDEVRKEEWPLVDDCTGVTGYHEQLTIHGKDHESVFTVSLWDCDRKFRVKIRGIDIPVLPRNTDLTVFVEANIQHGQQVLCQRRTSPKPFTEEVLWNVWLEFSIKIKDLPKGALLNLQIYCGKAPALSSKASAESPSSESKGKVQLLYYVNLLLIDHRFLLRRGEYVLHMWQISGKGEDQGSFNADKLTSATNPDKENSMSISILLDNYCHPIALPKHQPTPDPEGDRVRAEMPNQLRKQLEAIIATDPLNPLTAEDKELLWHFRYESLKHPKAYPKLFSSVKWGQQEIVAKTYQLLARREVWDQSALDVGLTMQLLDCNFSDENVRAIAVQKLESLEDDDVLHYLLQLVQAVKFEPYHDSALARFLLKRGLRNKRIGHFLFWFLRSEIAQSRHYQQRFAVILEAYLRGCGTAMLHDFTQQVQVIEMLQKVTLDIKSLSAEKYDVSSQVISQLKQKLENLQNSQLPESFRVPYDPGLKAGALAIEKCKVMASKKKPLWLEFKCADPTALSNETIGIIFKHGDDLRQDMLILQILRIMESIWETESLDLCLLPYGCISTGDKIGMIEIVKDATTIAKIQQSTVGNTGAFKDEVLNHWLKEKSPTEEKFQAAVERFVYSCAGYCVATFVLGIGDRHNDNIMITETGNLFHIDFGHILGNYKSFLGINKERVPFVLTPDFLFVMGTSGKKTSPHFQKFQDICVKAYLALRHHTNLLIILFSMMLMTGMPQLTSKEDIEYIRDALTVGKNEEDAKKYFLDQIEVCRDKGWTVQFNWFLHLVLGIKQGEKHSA
T2 sequence (P42338 whole entry): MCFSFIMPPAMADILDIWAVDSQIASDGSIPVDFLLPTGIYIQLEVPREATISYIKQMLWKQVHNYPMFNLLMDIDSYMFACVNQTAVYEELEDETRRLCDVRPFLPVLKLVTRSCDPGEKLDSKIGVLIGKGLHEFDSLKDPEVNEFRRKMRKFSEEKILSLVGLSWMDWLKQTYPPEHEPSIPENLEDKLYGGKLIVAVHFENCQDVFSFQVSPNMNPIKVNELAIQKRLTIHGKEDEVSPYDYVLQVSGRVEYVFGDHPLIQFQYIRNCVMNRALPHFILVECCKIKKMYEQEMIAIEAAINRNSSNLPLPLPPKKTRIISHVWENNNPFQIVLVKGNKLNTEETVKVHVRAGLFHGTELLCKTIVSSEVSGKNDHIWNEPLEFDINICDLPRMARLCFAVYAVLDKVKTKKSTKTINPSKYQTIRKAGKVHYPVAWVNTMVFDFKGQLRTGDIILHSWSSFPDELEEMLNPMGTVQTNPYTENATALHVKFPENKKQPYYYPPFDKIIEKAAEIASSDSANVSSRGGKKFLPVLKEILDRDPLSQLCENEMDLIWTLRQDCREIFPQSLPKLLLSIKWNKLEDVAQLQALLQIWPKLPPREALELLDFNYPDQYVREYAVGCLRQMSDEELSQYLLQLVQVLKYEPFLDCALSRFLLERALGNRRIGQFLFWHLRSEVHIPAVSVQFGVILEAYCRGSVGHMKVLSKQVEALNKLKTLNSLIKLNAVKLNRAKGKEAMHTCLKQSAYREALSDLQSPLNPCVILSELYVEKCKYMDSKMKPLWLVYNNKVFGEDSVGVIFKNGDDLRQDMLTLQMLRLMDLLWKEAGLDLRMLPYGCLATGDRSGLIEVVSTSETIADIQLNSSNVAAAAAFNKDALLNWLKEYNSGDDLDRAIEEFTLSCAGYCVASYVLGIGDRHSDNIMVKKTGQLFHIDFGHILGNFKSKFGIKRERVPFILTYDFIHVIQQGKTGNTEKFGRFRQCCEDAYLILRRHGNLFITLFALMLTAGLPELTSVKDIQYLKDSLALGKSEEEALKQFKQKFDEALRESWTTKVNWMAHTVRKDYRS
T2 sequence (P27986 whole entry partner): as the sequence (P27986 whole entry partner) above

Row | Compound | IC50 [1] | CL/F [2] | AUC(0-t) [2] | half-life [2] | Vd [2] | bioavailability [2] | IC50 [3] | IC50 [4] | IC50 [5] | half-life at 5 μM [6] | CLint scaled at 5 μM [6] | CLint scaled at 5 μM [7] | half-life at 5 μM [7]
1 | CC[C@H](Nc1ncnc(N)c1-c1nc(C)no1)c1nc2cccc(-c3cnn(C)c3)c2c(=O)n1C1CC1 [Ex. 71, (S)-2-(1-((6-amino-5-(3-methyl-1,2,4-oxadiazol-5-yl)pyrimidin-4-yl)amino)propyl)-3-cyclopropyl-5-(1-methyl-1H-pyrazol-4-yl)quinazolin-4(3H)-one] | 479 nM | 64 mL/min/kg | 256 ng·h/mL | 1.07 h | 4.9 L/kg | 85.5% | 752 nM | 16 nM | 1320 nM | – | – | – | –
2 | CC[C@H](Nc1ncnc(N)c1-c1noc(C)n1)c1nc2cccc(-c3cnn(C)c3)c2c(=O)n1C1CC1 [Ex. 79, (S)-2-(1-((6-amino-5-(5-methyl-1,2,4-oxadiazol-3-yl)pyrimidin-4-yl)amino)propyl)-3-cyclopropyl-5-(1-methyl-1H-pyrazol-4-yl)quinazolin-4(3H)-one] | – | 32.2 mL/min/kg | 511 ng·h/mL | 1.36 h | 4.25 L/kg | 78.7% | – | – | – | 0.821 h | 35.3 mL/min/kg | 17.3 mL/min/kg | 2.4 h
3 | Cc1nnc(-c2c(N)ncnc2N[C@@H](C)c2nc3cccc(-c4cnn(C)c4)c3c(=O)n2C2CC2)o1 [Ex. 67, (S)-2-(1-((6-amino-5-(5-methyl-1,3,4-oxadiazol-2-yl)pyrimidin-4-yl)amino)ethyl)-3-cyclopropyl-5-(1-methyl-1H-pyrazol-4-yl)quinazolin-4(3H)-one] | – | 23.2 mL/min/kg | 777 ng·h/mL | 1.14 h | 1.86 L/kg | 71.7% | – | 47 nM | – | 1.58 h | 18.3 mL/min/kg | 10.1 mL/min/kg | 4.08 h
4 | Cc1nnc(-c2c(N)ncnc2N[C@@H](C)c2nc3cccc(Cl)c3c(=O)n2C2CC2)o1 [Ex. 70, (S)-2-(1-((6-amino-5-(5-methyl-1,3,4-oxadiazol-2-yl)pyrimidin-4-yl)amino)ethyl)-5-chloro-3-cyclopropylquinazolin-4(3H)-one] | – | 44 mL/min/kg | 399 ng·h/mL | 0.85 h | 3.3 L/kg | 96.4% | – | 50 nM | – | 1.1 h | 26.3 mL/min/kg | 37.8 mL/min/kg | 1.1 h

More lines, now with the values ahead:

Row | IC50 [1] | CL/F [2] | AUC(0-t) [2] | half-life [2] | Vd [2] | bioavailability [2] | IC50 [3] | IC50 [4] | IC50 [5] | half-life at 5 μM [6] | CLint scaled at 5 μM [6] | CLint scaled at 5 μM [7] | half-life at 5 μM [7] | Compound
5 | – | 20.8 mL/min/kg | 783 ng·h/mL | 1.27 h | 2.18 L/kg | 67.7% | – | – | – | 1 h | 28.9 mL/min/kg | 38.3 mL/min/kg | 1.08 h | CC[C@H](Nc1ncnc(N)c1-c1nnn(C)n1)c1nc2cccc(-c3cnn(C)c3)c2c(=O)n1C1CC1 [Ex. 78, (S)-2-(1-((6-amino-5-(2-methyl-2H-tetrazol-5-yl)pyrimidin-4-yl)amino)propyl)-3-cyclopropyl-5-(1-methyl-1H-pyrazol-4-yl)quinazolin-4(3H)-one]
6 | – | 6.5 mL/min/kg | 2510 ng·h/mL | 1.45 h | 0.77 L/kg | 105% | – | – | – | 4.49 h | 6.46 mL/min/kg | 8.61 mL/min/kg | 4.81 h | C[C@H](Nc1ncnc(N)c1-c1nnn(C)n1)c1nc2cccc(-c3cnn(C)c3)c2c(=O)n1-c1ccccc1 [Ex. 76, (S)-2-(1-((6-amino-5-(2-methyl-2H-tetrazol-5-yl)pyrimidin-4-yl)amino)ethyl)-5-(1-methyl-1H-pyrazol-4-yl)-3-phenylquinazolin-4(3H)-one]
7 | – | 5.33 mL/min/kg | 2920 ng·h/mL | 1.76 h | 0.78 L/kg | 109% | – | – | – | 1.36 h | 21.3 mL/min/kg | 21.2 mL/min/kg | 1.95 h | Cc1nc(-c2c(N)ncnc2N[C@@H](C)c2nc3cccc(-c4cnn(C)c4)c3c(=O)n2-c2ccccc2)no1 [Ex. 77, (S)-2-(1-((6-amino-5-(5-methyl-1,2,4-oxadiazol-3-yl)pyrimidin-4-yl)amino)ethyl)-5-(1-methyl-1H-pyrazol-4-yl)-3-phenylquinazolin-4(3H)-one]
8 | – | – | – | – | – | – | – | – | – | 1.07 h | 27 mL/min/kg | 37.7 mL/min/kg | 1.1 h | Cc1nc(-c2c(N)ncnc2N[C@@H](C)c2nc3cccc(-c4cnn(C)c4)c3c(=O)n2C2CC2)no1 [Ex. 80, (S)-2-(1-((6-amino-5-(5-methyl-1,2,4-oxadiazol-3-yl)pyrimidin-4-yl)amino)ethyl)-3-cyclopropyl-5-(1-methyl-1H-pyrazol-4-yl)quinazolin-4(3H)-one]
